Data taken from patent publication US12653914B2, “Compounds for fast and efficient click release” (priority 2019, dated 2026).
Where two headings read alike, the source gives them in different places.

Key:
[1] = Second order rate constants, TCO with tetrazine activators, stopped-flow spectrophotometry in PBS; conditions: PBS at 37° C., 25 μM tetrazine, 50 μM TCO
Experimental: Second order rate constants for the reaction of tetrazines activators with 1.13 and 1.71 were determined using a SX20 stopped-flow spectrophotometer from Applied Photophysics. Measurements were performed at 37° C. with 25 μM tetrazine and 50 μM TCO in PBS, in triplicates, monitored at 535 nm. Data was analyzed using GraphPad Prism. Second order rate constants were determined from nonlinear fitting of the absorbance vs. time curves to the second order rate equation. […] Importantly, 2.17 and 2.18 are very reactive, but afford low release yields with TCO triggers that are not part of this invention (i.e. 1.71) [Versteegen et al., Angew. Chem. Int. Ed. 2013, 52, 14112-14116].

[2] = Trigger stability in vitro in PBS; type: physicochemical; conditions: 37° C., 200 μM, after 48 h, n=3
Experimental: (§1) 1.13 was incubated at 37° C. in PBS and human plasma at a concentration of 200 μM. The concentration after 12, 24 and 48 h was determined (n=3) by titration with activator 2.9 and simultaneous absorbance measurements.

[3] = type: in vitro ADME; conditions: human, 200 μM
Experimental: as §1

In the case of `COC(=O)[C@]1(O)CC/C=C/[C@H](OC(=O)NCCOCCOCCOCCO)CC1` [Compound 1.13, Methyl(1S,4E,6R)-1-hydroxy-6-{[(2-{2-[2-(2-hydroxyethoxy)ethoxy]ethoxy}ethyl)carbamoyl]oxy}cyclooct-4-ene-1-carboxylate], the k2 ([1]; activator 2.12) is reported as 260 ± 40 M⁻¹ s⁻¹, the k2 ([1]; activator 2.17) is reported as 8700 ± 1200 M⁻¹ s⁻¹ and the k2 ([1]; activator 2.18) is reported as 10400 ± 1100 M⁻¹ s⁻¹. The k2 ([1]; activator 2.9) was 70 ± 10 M⁻¹ s⁻¹, the “intact TCO” value [2] was 101±5% and the “residual intact TCO” value ([3]; 24 h) was 98±7%. The “residual intact TCO” value ([3]; 48 h) was 76±9%.
